# According to patent US12133838B2, “Homotaurine-enriched compositions and methods of use for animal health” (FB Maria srl, priority 2015, dated 2024):
# Tests used:
# elderly dogs = assay: cognitive learning test in a maze, elderly dogs; type: in vivo, dog; details: for Average number of wrong tries of the aged dogs able to pass the learning test (average score) / Percentage of the aged dogs able to pass the learning test: dogs more than 10 years
# Text: (§1) The experiment began by selecting two groups of elderly dogs (age more than 10 years, 16 subjects per group) and two groups of young adult dogs (between 3 and 6 years of age, 6 subjects per group), who were divided randomly balancing them per age, seniority, and size. The dogs underwent a cognitive learning tests (Spatial reversal learning is impaired by aging in pet dogs, P. Mongillo et al., Age, 2013, 35 (6): 2273-2282), in a simple maze built to this trial. Passing the test consisted in the dog's ability to learn to get out of the labyrinth in the direction that he himself had chosen in the first successful attempt. The number of attempts has been the test score: the lower the number of attempts, better cognitive performance. Immediately after the test, two groups of dogs (one old and one young) started to receive food integration of homotaurine capsules. Homotaurine at was administered orally once daily (PO SID) at a dose of 1 g/subject. After 15 days the dogs underwent a memory test (learning result application of first test) and, if they have passed the test, to a subsequent reverse learning test, which consisted in learning to exit the labyrinth from the opposite direction to that previously learned within a defined number of trials. After 4 months of homotaurine supplementation, initial learning test was repeated, with the same modalities of the initial test. The first evaluable results regarding the comparison between the cognitive learning tests, carried out on two groups of dogs over 10 years of age, a period in which aging-correlated brain behavior changes can be observed.
# young adult dogs = assay: cognitive learning test in a maze, young adult dogs; type: in vivo, dog; details: young dogs (under 6 years of age), homotaurine 1 g/subject PO SID
# Text: as §1, with “After” for “After 15 days the dogs underwent a memory test (learning result application of first test) and, if they have passed the test, to a subsequent reverse learning test, which consisted in learning to exit the labyrinth from the opposite direction to that previously learned within a defined number of trials. After”, “test.” for “test. The first evaluable results regarding the comparison between the cognitive learning tests, carried out on two groups of dogs over 10 years of age, a period in which aging-correlated brain behavior changes can be observed.”
# [1] = 1° test, before start of homotaurine
# [2] = 2° test, after 4 months of homotaurine 1 g/subject PO SID
smiles,measurement,setting,value
"NCCCS(=O)(=O)O [homotaurine, 3-amino-1-propanesulfonic acid]",Average number of wrong tries of the aged dogs able to pass the learning test (average score),elderly dogs; [1],6.67
same,Percentage of the aged dogs able to pass the learning test,elderly dogs; [1],75%
same,Average number of wrong tries of the aged dogs able to pass the learning test (average score),elderly dogs; [2],5.67
same,Percentage of the aged dogs able to pass the learning test,elderly dogs; [2],75%
same,"change of average score, second versus first test","elderly dogs; aged dogs, about four months of homotaurine 1 g/subject PO SID",−1.0
same,failures in the learning test,"elderly dogs; first test, before start of homotaurine, aged dogs",25%
same,failures in the learning test,"elderly dogs; second test, about four months later, 1 g/subject PO SID, aged dogs",25%
same,change of average score,young adult dogs,−2.6
